The values that follow come from patent US9896441B2 (Lycera Corporation, priority 2014, dated 2018).

Where only a bound is given, the exact number is not on record here.

One experiment concerns the target T1, RORγ-LBD (Homo sapiens, UniProt P51449).
T1 construct: made in house; host or cells: SF9 cells (baculovirus); used as diluted lysate
T1 sequence (P51449 269-508 limits assumed): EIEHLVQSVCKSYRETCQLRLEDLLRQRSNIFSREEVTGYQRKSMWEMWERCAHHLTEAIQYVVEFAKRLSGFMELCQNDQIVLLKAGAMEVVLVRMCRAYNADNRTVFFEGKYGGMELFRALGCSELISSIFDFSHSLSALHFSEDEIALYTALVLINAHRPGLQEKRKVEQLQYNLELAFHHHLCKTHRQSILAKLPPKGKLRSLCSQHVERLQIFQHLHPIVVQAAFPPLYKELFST
In words: RORγ-Ligand Binding Domain (LBD) TR-FRET Assay.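 On TR-FRET Assay Max Response: 665/615 nm signal ratio set to 100 without ursolic acid or test compound.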 It counts as biochemical. The settings on record: for TR-FRET Assay Max Response: maximum response. The essentials: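 TR-FRET read-out using a biotin-tagged SRC1 coactivator LXXLL peptide (200 nM final), with the antagonist ursolic acid present at 2 μM final. Receptor is His-tagged LBD expressed in SF9 cells, ~3 nM final in pH 7.0 Tris/KCl/EDTA/DTT/BSA buffer; compounds in 1% DMSO final.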

The target of the next experiment is T2, Gal4-RORγ-LBD (Homo sapiens, UniProt P51449).
T2 construct: expressed in transfected cells
T2 sequence (P51449 269-508 limits assumed): T1 sequence (P51449 269-508 limits assumed)
In words: Gal4-RORγ Luciferase Reporter Assay in HEK-293T Cells. Particulars: HEK-293 cells; for Gal4-RORγ Assay Max Response: maximum response. It counts as cell-based. The essentials: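 Max Response was taken as the upper plateau of a 4-parameter logistic fit of luciferase signal, normalized to 100 for wells without ursolic acid or compound. Transiently Gal4-RORγ-LBD/Gal4-luc transfected HEK-293 cells carrying […] ursolic acid were incubated with test compounds (0.2% DMSO) overnight at 37 °C and read with One-Glo.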

[1] abbreviates: luciferase reporter, in presence of ursolic acid.
[2] abbreviates: luciferase reporter, with ursolic acid.

`C/C(=C\c1ccc2c(c1)N(S(=O)(=O)c1cccc(C(F)(F)F)c1)[C@H](C)[C@H](N)C2)c1c(F)cccc1Cl` [Example 147, (2R,3R)-7-((E)-2-(2-Chloro-6-fluorophenyl)prop-1-en-1-yl)-2-methyl-1-((3-(trifluoromethyl)phenyl)sulfonyl)-1,2,3,4-tetrahydroquinolin-3-amine]: at RORγ-LBD (RORγ-LBD TR-FRET assay), the 50% effective concentration (EC50) is < 500 nM and the “TR-FRET Assay Max Response” value is “*** (a value in the range of greater than 150 to 200)”. Besides, at Gal4-RORγ-LBD (setting [1]), the EC50 fell in the range of 500 to 5000 nM and the “Gal4-RORγ Assay Max Response” value is “** (a value in the range of greater than 90 to 150)”.

For `CC(O[C@@H]1Cc2ccc(OCc3c(F)cccc3Cl)cc2N(S(=O)(=O)c2cccc(C(F)(F)F)c2)C1)C(=O)O` (stereo partly drawn) [Example 173C, 2-(((R)-7-((2-chloro-6-fluorobenzyl)oxy)-1-((3-(trifluoromethyl)phenyl)sulfonyl)-1,2,3,4-tetrahydroquinolin-3-yl)oxy)propanoic acid], on RORγ-LBD (RORγ-LBD TR-FRET assay), the EC50 is < 500 nM and the “TR-FRET Assay Max Response” value is “** (a value in the range of greater than 90 to 150)”. For the same compound, on Gal4-RORγ-LBD (setting [1]), the EC50 was < 500 nM and the “Gal4-RORγ Assay Max Response” value is reported as “** (a value in the range of greater than 90 to 150)”.

Consider `CCOc1ncc(C(F)(F)F)cc1S(=O)(=O)N1C[C@H](CCC(=O)OC)Oc2ccc(/C=C/c3c(Cl)cccc3C(F)F)cc21` [Example 89EK, methyl (S,E)-3-(6-(2-chloro-6-(difluoromethyl)styryl)-4-((2-ethoxy-5-(trifluoromethyl)-pyridin-3-yl)sulfonyl)-3,4-dihydro-2H-benzo[b][1,4]-oxazin-2-yl)propanoate], for which the EC50 is < 500 nM on RORγ-LBD (RORγ-LBD TR-FRET) and 500 to 5000 nM at Gal4-RORγ-LBD (setting [2]).

In the case of `C/C(=C\c1ccc2c(c1)N(S(=O)(=O)c1cccc(C(F)(F)F)c1)C[C@H](CCC(=O)N1CC[C@H](C(=O)O)C1)O2)c1c(F)cccc1Cl` [Example 129C, (S)-1-(3-((S)-6-((E)-2-(2-chloro-6-fluorophenyl)-prop-1-en-1-yl)-4-((3-(trifluoromethyl)phenyl)sulfonyl)-3,4-dihydro-2H-benzo[b][1,4]oxazin-2-1)propanoyl)pyrrolidine-3-carboxylic acid], at RORγ-LBD (RORγ-LBD TR-FRET assay), the 50% effective concentration (EC50) is < 500 nM and the “TR-FRET Assay Max Response” value is given as “**** (a value greater than 200)”. Moreover, at Gal4-RORγ-LBD (setting [1]), the half-maximal effective concentration (EC50) is < 500 nM and the “Gal4-RORγ Assay Max Response” value was “** (a value in the range of greater than 90 to 150)”.

Consider `C/C(=C\c1ccc2c(c1)N(S(=O)(=O)c1cccc(C(F)(F)F)c1)C[C@H](OCC(=O)O)C2)c1c(F)cccc1Cl` [Example 173E, (R,E)-2-((7-(2-(2-chloro-6-fluorophenyl)prop-1-en-1-yl)-1-((3-(trifluoromethyl)-phenyl)sulfonyl)-1,2,3,4-tetrahydroquinolin-3-yl)oxy)acetic acid], for which, on RORγ-LBD (RORγ-LBD TR-FRET assay), the EC50 was < 500 nM and the “TR-FRET Assay Max Response” value is recorded as “** (a value in the range of greater than 90 to 150)”. In addition, at Gal4-RORγ-LBD (setting [1]), the concentration giving a half-maximal response (EC50) lay in the range of 500 to 5000 nM and the “Gal4-RORγ Assay Max Response” value is “** (a value in the range of greater than 90 to 150)”.

Take `C/C(=C\c1ccc2c(c1)N(S(=O)(=O)c1cccc(C(F)(F)F)c1)C[C@H](CCCN1CCC(O)C1)O2)c1c(F)cccc1Cl` (stereo partly drawn) [Example 119B, 1-(3-((S)-6-((E)-2-(2-chloro-6-fluorophenyl)prop-1-en-1-yl)-4-((3-(trifluoromethyl)-phenyl)-sulfonyl)-3,4-dihydro-2H-benzo[b][1,4]-oxazin-2-yl)propyl)-pyrrolidin-3-ol]: at RORγ-LBD (RORγ-LBD TR-FRET assay), the EC50 is < 500 nM and the “TR-FRET Assay Max Response” value is “*** (a value in the range of greater than 150 to 200)”. For the same compound, on Gal4-RORγ-LBD (setting [1]), the EC50 fell in the range of 500 to 5000 nM and the “Gal4-RORγ Assay Max Response” value is on record as “** (a value in the range of greater than 90 to 150)”.

In the case of `O=C(O)CC[C@H]1CN(S(=O)(=O)c2cccc(C(F)(F)F)c2)c2cc(C3CCCCC3)ccc2O1` [Example 194, (S)-3-(6-cyclohexyl-4-((3-(trifluoromethyl)phenyl)sulfonyl)-3,4-dihydro-2H-benzo[b][1,4]oxazin-2-yl)propanoic acid], the 50% effective concentration (EC50) was < 500 nM on RORγ-LBD (with 2 μM ursolic acid (RORγ antagonist), highest test concentration 10 μM) and < 500 nM on Gal4-RORγ-LBD (ursolic acid present, luciferase readout).

As for `CCOC(=O)C(C)(C)C[C@H]1C[C@H](S(=O)(=O)c2cccc(C(F)(F)F)c2)c2cc(/C=C(\C)c3c(F)cccc3Cl)ccc2O1` [Example 186M, ethyl 3-((2S,45)-6-((E)-2-(2-chloro-6-fluorophenyl)prop-1-en-1-yl)-4-((3-(trifluoromethyl)-phenyl)sulfonyl)chroman-2-yl)-2,2-dimethylpropanoate], on RORγ-LBD (RORγ-LBD TR-FRET assay), the EC50 was < 500 nM and the “TR-FRET Assay Max Response” value is “*** (a value in the range of greater than 150 to 200)”. At Gal4-RORγ-LBD (setting [1]), the concentration for a half-maximal effect (EC50) is < 500 nM and the “Gal4-RORγ Assay Max Response” value is listed as “* (a value in the range of 30 to 90)”.

For `Cc1ccc(/C=C/c2ccc3c(c2)N(S(=O)(=O)c2cccc(OC(F)F)c2)C[C@H](CCC(=O)O)O3)cc1` [Example 89BE, (S,E)-3-(4-((3-(difluoromethoxy)phenyl)sulfonyl)-6-(4-methylstyryl)-3,4-dihydro-2H-benzo[b][1,4]oxazin-2-yl)propanoic acid], the results for the 50% effective concentration (EC50) at RORγ-LBD (RORγ-LBD TR-FRET) and at Gal4-RORγ-LBD (setting [2]) were 500 to 5000 nM and > 10000 nM, respectively.

As for `COc1cc(S(=O)(=O)C2CC(CCC(=O)O)Oc3ccc(/C=C(\C)c4c(F)cccc4Cl)cc32)ccc1F` (stereo not drawn) [Example 186G, (E)-3-(6-(2-(2-chloro-6-fluorophenyl)prop-1-en-1-yl)-4-((4-fluoro-3-methoxyphenyl)-sulfonyl)chroman-2-yl)propanoic acid], on RORγ-LBD (RORγ-LBD TR-FRET assay), the half-maximal effective concentration (EC50) was < 500 nM and the “TR-FRET Assay Max Response” value was “** (a value in the range of greater than 90 to 150)”. Also, on Gal4-RORγ-LBD (setting [1]), the half-maximal effective concentration (EC50) lay within 500 to 5000 nM and the “Gal4-RORγ Assay Max Response” value is given as “** (a value in the range of greater than 90 to 150)”.

For `C/C(=C\c1ccc2c(c1)N(S(=O)(=O)c1cccc(C(F)(F)F)c1)[C@H](C)[C@@H](O)C2)c1c(F)cccc1Cl` (racemic) [Example 177, rac-(2R,3S)-7-((E)-2-(2-Chloro-6-fluorophenyl)prop-1-en-1-yl)-2-methyl-1-((3-(trifluoromethyl)phenyl)sulfonyl)-1,2,3,4-tetrahydroquinolin-3-ol], on RORγ-LBD (RORγ-LBD TR-FRET assay), the 50% effective concentration (EC50) was < 500 nM and the “TR-FRET Assay Max Response” value is reported as “** (a value in the range of greater than 90 to 150)”. Also, at Gal4-RORγ-LBD (setting [1]), the EC50 was in the range of 500 to 5000 nM and the “Gal4-RORγ Assay Max Response” value is reported as “** (a value in the range of greater than 90 to 150)”.

In the case of `C/C(=C\c1ccc2c(c1)N(S(=O)(=O)c1cccc(C(F)(F)F)c1)C[C@H](O)C2)c1c(F)cccc1Cl` [Example 162, (R,E)-7-(2-(2-Chloro-6-fluorophenyl)prop-1-en-1-yl)-1-((3-(trifluoromethyl)phenyl)sulfonyl)-1,2,3,4-tetrahydroquinolin-3-ol], on RORγ-LBD (RORγ-LBD TR-FRET assay), the EC50 is < 500 nM and the “TR-FRET Assay Max Response” value is “*** (a value in the range of greater than 150 to 200)”. Further, on Gal4-RORγ-LBD (setting [1]), the EC50 is < 500 nM and the “Gal4-RORγ Assay Max Response” value was “** (a value in the range of greater than 90 to 150)”.

Consider `C/C(=C\c1ccc2c(c1)N(S(=O)(=O)c1cccc(C(F)(F)F)c1)C[C@H](CCN1CCC(C(=O)O)CC1)O2)c1c(F)cccc1Cl` [Example 122, (S,E)-1-(2-(6-(2-(2-Chloro-6-fluorophenyl)prop-1-en-1-yl)-4-((3-(trifluoromethyl)phenyl)sulfonyl)-3,4-dihydro-2H-benzo[b][1,4]oxazin-2-yl)ethyl)piperidine-4-carboxylic acid], for which, on RORγ-LBD (RORγ-LBD TR-FRET assay), the concentration for a half-maximal effect (EC50) was < 500 nM and the “TR-FRET Assay Max Response” value was “*** (a value in the range of greater than 150 to 200)”. Also, on Gal4-RORγ-LBD (setting [1]), the EC50 is < 500 nM and the “Gal4-RORγ Assay Max Response” value was “** (a value in the range of greater than 90 to 150)”.

Consider `C/C(=C\c1ccc2c(c1)N(S(=O)(=O)c1cccc(C(F)(F)F)c1)C[C@H](NS(C)(=O)=O)C2)c1c(F)cccc1Cl` [Example 116H, (R,E)-N-(7-(2-(2-chloro-6-fluorophenyl)prop-1-en-1-yl)-1-((3-(trifluoromethyl)phenyl)-sulfonyl)-1,2,3,4-tetra-hydroquinolin-3-yl)methanesulfonamide], for which, at RORγ-LBD (RORγ-LBD TR-FRET assay), the EC50 is < 500 nM and the “TR-FRET Assay Max Response” value is given as “*** (a value in the range of greater than 150 to 200)”. Further, on Gal4-RORγ-LBD (setting [1]), the concentration for a half-maximal effect (EC50) is < 500 nM and the “Gal4-RORγ Assay Max Response” value is “** (a value in the range of greater than 90 to 150)”.

As to `CCn1cc(S(=O)(=O)N2C[C@H]([C@@H](C)O)Oc3ccc(/C=C(\C)c4c(F)cccc4Cl)cc32)c(Cl)n1` [Example 99, (R)-1-((R)-4-((3-Chloro-1-ethyl-1H-pyrazol-4-yl)sulfonyl)-6-((E)-2-(2-chloro-6-fluorophenyl)prop-1-en-1-yl)-3,4-dihydro-2H-benzo[b][1,4]oxazin-2-yl)ethan-1-ol], the EC50 is < 500 nM at RORγ-LBD (RORγ-LBD TR-FRET) and 500 to 5000 nM at Gal4-RORγ-LBD (setting [2]).

`C/C(=C\c1cc2c(cc1Cl)O[C@@H](CCC(=O)O)CN2S(=O)(=O)c1cccc(OC(F)F)c1)c1c(F)cccc1Cl` [Example 48, (S,E)-3-(6-(2-(2-Chloro-6-fluorophenyl)prop-1-en-1-yl)-4-((3-(difluoromethoxy)phenyl)sulfonyl)-7-chloro-3,4-dihydro-2H-benzo[b][1,4]oxazin-2-yl)propanoate]: the EC50 at RORγ-LBD (RORγ-LBD TR-FRET) was 500 to 5000 nM; at Gal4-RORγ-LBD (setting [2]) it was < 500 nM.
